Laboratory results as given in US9119853B2, “Sanglifehrin based compounds” (priority 2010, dated 2015).
Converted amounts (≈) assume the structure as drawn.

Assays:
[1] = Anti-metabolic effect (MTS) in the replicon cell line; settings: human
[2] = test system: HCV genotype 1b I389luc-ubi-neo/NS3-3'/5.1 replicon in Huh5.2 cells; assay: microbe, parasite or virus in culture; type: cell-based, Hepatitis C Virus; settings: for EC50 / EC90: Hepatitis C virus, Huh-5-2, 72 h
[3] = Solubility in PBS pH 7.4; settings: for solubility compared to sanglifehrin A (5) and cyclosporine A (1) (in words): PBS pH 7.4; for solubility at 4 h: PBS, pH 7.4, aqueous buffer, kinetic from dmso stock

Row | Structure (SMILES) | CC50 at 72 h [1] [µM] | Selectivity index (CC50/EC50) [2] | potency in the Huh5.2 replicon assay (in words) [2] | EC50 [2] [µM] | EC90 [2] [µM] | solubility compared to sanglifehrin A (5) and cyclosporine A (1) (in words) [3] | solubility at 4 h [3] [µM]
1 | C/C=C/C[C@H]1C(=O)N[C@@H](C(C)C)C(=O)N[C@@H](Cc2cccc(O)c2)C(=O)N2CCCC(N2)C(=O)O[C@H](/C(C)=C/C=C/C(=O)N(C)OC)C/C=C/C=C/[C@H](O)[C@H](C)[C@H]1O (some centres unmarked) [compound 28] | 17.7 | 28.2 | very potent | 0.628 | 4 | increased solubility | 78 (≈ 63 µg/mL)
2 | CNC(=O)/C=C/C=C(\C)[C@@H]1C/C=C/C=C/[C@H](O)[C@H](C)[C@@H](O)[C@@H](CCC(C)=O)C(=O)N[C@@H](C(C)C)C(=O)N[C@@H](Cc2cccc(O)c2)C(=O)N2CCCC(N2)C(=O)O1 (some centres unmarked) [compound 19] | > 100 | >80 |  | 8 | 60.2 | increased solubility | > 100
3 | CC(=O)CC[C@H]1C(=O)N[C@@H](C(C)C)C(=O)N[C@@H](Cc2cccc(O)c2)C(=O)N2CCCC(N2)C(=O)O[C@H](/C(C)=C/C=C/C(=O)Nc2ccc(-c3ccccc3)cc2)C/C=C/C=C/[C@H](O)[C@H](C)[C@H]1O (some centres unmarked) [compound 41] | > 100 | >481 | very potent | 0.208 | 1.1 |  | 
4 | CC(=O)CC[C@H]1C(=O)N[C@@H](C(C)C)C(=O)N[C@@H](Cc2cccc(O)c2)C(=O)N2CCCC(N2)C(=O)O[C@H](/C(C)=C/C=C/C(=O)N(C)C)C/C=C/C=C/[C@H](O)[C@H](C)[C@H]1O (some centres unmarked) [compound 22] | > 100 | >287 | very potent | 0.349 | 6.2 | increased solubility | > 100
5 | CC(=O)CC[C@H]1C(=O)N[C@@H](C(C)C)C(=O)N[C@@H](Cc2cccc(O)c2)C(=O)N2CCCC(N2)C(=O)O[C@H](/C(C)=C/C=C/C(=O)N(C)C2CCCCC2)C/C=C/C=C/[C@H](O)[C@H](C)[C@H]1O (some centres unmarked) [compound 45] | 66.4 | 449 | very potent | 0.148 | 1.9 |  | 
6 | CCN(CC)C(=O)/C=C/C=C(\C)[C@@H]1C/C=C/C=C/[C@H](O)[C@H](C)[C@@H](O)[C@@H](CCC(C)=O)C(=O)N[C@@H](C(C)C)C(=O)N[C@@H](Cc2cccc(O)c2)C(=O)N2CCCC(N2)C(=O)O1 (some centres unmarked) [compound 13] | > 100 | >490 | very potent | 0.204 | 1.2 | increased solubility | > 100
7 | CC(=O)CC[C@H]1C(=O)N[C@@H](C(C)C)C(=O)N[C@@H](Cc2cccc(O)c2)C(=O)N2CCCC(N2)C(=O)O[C@H](/C(C)=C/C=C/C(=O)NC(C)C)C/C=C/C=C/[C@H](O)[C@H](C)[C@H]1O (some centres unmarked) [compound 16] | > 100 | >179 | very potent | 0.56 | 4.6 |  | 
8 | CC(=O)CC[C@H]1C(=O)N[C@@H](C(C)C)C(=O)N[C@@H](Cc2cccc(O)c2)C(=O)N2CCCC(N2)C(=O)O[C@H](/C(C)=C/C=C/C(=O)NC2CCCCC2)C/C=C/C=C/[C@H](O)[C@H](C)[C@H]1O (some centres unmarked) [compound 51] | > 100 | >298 | very potent | 0.336 | 4.2 |  | 
